Results on 22 molecules are retold here after patent publication US12686690B2, “Macrocyclic urea orexin receptor agonists” (Merck Sharp & Dohme LLC, priority 2020, dated 2026).

The target of this test is T1, hOX2R (Homo sapiens, UniProt O43614).
T1 construct: expressed in transfected cells; host or cells: CHO cells (G418 selection)
T1 sequence (O43614 1-444): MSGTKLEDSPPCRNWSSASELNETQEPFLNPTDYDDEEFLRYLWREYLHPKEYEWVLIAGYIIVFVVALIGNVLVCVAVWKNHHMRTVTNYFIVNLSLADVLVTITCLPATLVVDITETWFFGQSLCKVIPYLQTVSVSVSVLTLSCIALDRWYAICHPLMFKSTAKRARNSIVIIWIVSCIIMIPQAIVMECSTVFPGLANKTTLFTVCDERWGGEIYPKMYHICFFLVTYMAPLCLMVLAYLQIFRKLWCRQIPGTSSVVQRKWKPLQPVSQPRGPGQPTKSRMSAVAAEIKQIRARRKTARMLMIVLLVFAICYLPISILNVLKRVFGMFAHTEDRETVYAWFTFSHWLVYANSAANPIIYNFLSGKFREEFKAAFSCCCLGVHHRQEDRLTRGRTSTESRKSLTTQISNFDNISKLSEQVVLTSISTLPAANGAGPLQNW
The test can be described thus: hOX2R IPone assay (orexin receptor agonism). It is filed as cell-based. Conditions: IPone readout; for hOX2R_Ipone max %act: maximal activation; for pEC50: orexin receptor agonist, read-out: hOX2R_IPone EC50.

SMILES strings stand for the structures. pEC50: −log10 of the molar value.

As to `CCN1C(=O)NC(C2CC2(F)F)CCCCCOc2nc(cn3ccnc23)-c2cc(ncc2OC)[C@H]1C` (stereo partly drawn) [Example 192, (3R,E)-7-(2,2-difluorocyclopropyl)-4-ethyl-25-methoxy-3-methyl-13-oxa-4,6-diaza-1(6,8)-imidazo[1,2-a]pyrazina-2(4,2)-pyridinacyclotri-decaphan-5-one], the hOX2R_Ipone max %act is on record as 100.9% and the pEC50 was 9.34.

For the molecule `CCN1C(=O)NC(C2CCCO2)CCCCCOc2nc(cn3ccnc23)-c2cc(ncc2OC)[C@H]1C` (stereo partly drawn) [Example 193, (3R,E)-4-ethyl-25-methoxy-3-methyl-7-(tetrahydrofuran-2-yl)-13-oxa-4,6-diaza-1(6,8)-imidazo[1,2-a]pyrazina-2(4,2)-pyridinacyclotri-decaphan-5-one], the hOX2R_Ipone max %act is recorded as 100.7% and the pEC50 was 8.92.

For the molecule `CCN1C(=O)NC(CC#N)CCCCCOc2nc(cn3ccnc23)-c2cc(ncc2OC)[C@H]1C` (stereo partly drawn) [Example 194, 2-((3R,E)-4-ethyl-25-methoxy-3-methyl-5-oxo-13-oxa-4,6-diaza-1(6,8)-imidazo[1,2-a]pyrazina-2(4,2)-pyridinacyclotridecaphane-7-yl)acetonitrile], the hOX2R_Ipone max %act came out at 102.2% and the pEC50 was 8.92.

As to `CCN1C(=O)NC(C2CC(F)(F)C2)CCCCCOc2nc(cn3ccnc23)-c2cc(ncc2OC)[C@H]1C` (stereo partly drawn) [Example 195, (3R,E)-7-(3,3-difluorocyclobutyl)-4-ethyl-25-methoxy-3-methyl-13-oxa-4,6-diaza-1(6,8)-imidazo[1,2-a]pyrazina-2(4,2)-pyridinacyclotri-decaphan-5-one], the hOX2R_Ipone max %act came out at 101.4% and the negative-log EC50 (pEC50) was 9.08.

`CCN1C(=O)NC(CCC#N)CCCCCOc2nc(cn3ccnc23)-c2cc(ncc2OC)[C@H]1C` (stereo partly drawn) [Example 196, 3-((3R,E)-4-ethyl-25-methoxy-3-methyl-5-oxo-13-oxa-4,6-diaza-1(6,8)-imidazo[1,2-a]pyrazina-2(4,2)-pyridinacyclotridecaphane-7-yl)propanenitrile]: the hOX2R_Ipone max %act turned out to be 101.6% and the pEC50 is 9.36.

As for `CCN1C(=O)NC(CCC(F)F)CCCCCOc2nc(cn3ccnc23)-c2cc(ncc2C2CC2)[C@H]1C` (stereo partly drawn) [Example 197, (3R,E)-25-cyclopropyl-7-(3,3-difluoropropyl)-4-ethyl-3-methyl-13-oxa-4,6-diaza-1(6,8)-imidazo[1,2-a]pyrazina-2(4,2)-pyridina-cyclotridecaphan-5-one], the hOX2R_Ipone max %act was determined as 105.4% and the pEC50 is 8.89.

For `CCN1C(=O)NC(CCC(F)(F)F)CCCCCOc2nc(cn3ccnc23)-c2cc(ncc2Cl)[C@H]1C` (stereo partly drawn) [Example 198, (3R,E)-25-chloro-4-ethyl-3-methyl-7-(3,3,3-trifluoropropyl)-13-oxa-4,6-diaza-1(6,8)-imidazo[1,2-a]pyrazina-2(4,2)-pyridinacyclotri-decaphan-5-one], the hOX2R_Ipone max %act is recorded as 103.1% and the pEC50 is 9.24.

`CCN1C(=O)NC(COC)CCCCCOc2nc(cn3ccnc23)-c2cc(ncc2F)[C@H]1C` (stereo partly drawn) [Example 199, (3R,E)-4-ethyl-25-fluoro-7-(methoxymethyl)-3-methyl-13-oxa-4,6-diaza-1(6,8)-imidazo[1,2-a]pyrazina-2(4,2)-pyridinacyclotridecaphan-5-one]: the hOX2R_Ipone max %act is given as 100.6% and the pEC50 is 8.37.

Turning to `CCN1C(=O)NC(CCC(C)(F)F)CCCCCOc2nc(nn3ccnc23)-c2cc(ncc2OC)[C@H]1C` (stereo partly drawn) [Example 200, (3R,E)-7-(3,3-difluorobutyl)-4-ethyl-25-methoxy-3-methyl-13-oxa-4,6-diaza-1(2,4)-imidazo[2,1-f][1,2,4]triazina-2(4,2)-pyridinacyclo-tridecaphan-5-one], the hOX2R_Ipone max %act is on record as 99.5% and the pEC50 was 9.28.

As for `CCN1C(=O)NC(CCC(F)F)CCCCCOc2nc(cn3ncnc23)-c2cc(ncc2C)[C@H]1C` (stereo partly drawn) [Example 201, (3R,E)-7-(3,3-difluoropropyl)-4-ethyl-25,3-dimethyl-13-oxa-4,6-diaza-1(6,8)-[1,2,4]triazolo[1,5-a]pyrazina-2(4,2)-pyridina-cyclotridecaphan-5-one], the hOX2R_Ipone max %act amounted to 101% and the pEC50 was 8.43.

Take `CCN1C(=O)NC(CCC(F)F)CCCCCOc2nc(nn3ccnc23)-c2cc(ncc2OC)[C@H]1C` (stereo partly drawn) [Example 202, (3R,E)-7-(3,3-difluoropropyl)-4-ethyl-25-methoxy-3-methyl-13-oxa-4,6-diaza-1(2,4)-imidazo[2,1-f][1,2,4]triazina-2(4,2)-pyridina-cyclotridecaphan-5-one]: the hOX2R_Ipone max %act worked out at 99.8% and the pEC50 was 8.77.

For `CCN1C(=O)NC(CC23CC(C2)C3)CCCCCOc2nc(nn3ccnc23)-c2cc(ncc2OC)[C@H]1C` (stereo partly drawn) [Example 203, (3R,E)-7-(bicyclo[1.1.1]pentan-1-ylmethyl)-4-ethyl-25-methoxy-3-methyl-13-oxa-4,6-diaza-1(2,4)-imidazo[2,1-f][1,2,4]triazina-2(4,2)-pyridinacyclotridecaphan-5-one], the hOX2R_Ipone max %act was 100% and the pEC50 was 7.94.

Take `CCN1C(=O)NC(CCC(F)F)CCCCCOc2cc(nn3ccnc23)-c2cc(ncc2F)[C@H]1C` (stereo partly drawn) [Example 204, (3R,E)-7-(3,3-difluoropropyl)-4-ethyl-25-fluoro-3-methyl-13-oxa-4,6-diaza-1(6,8)-imidazo[1,2-b]pyridazina-2(4,2)-pyridina-cyclotridecaphan-5-one]: the hOX2R_Ipone max %act stood at 100.5% and the pEC50 is 8.68.

For the molecule `C[C@@H]1c2cc(c(F)cn2)-c2nc(c3nccn3n2)OCCCCCC(CCC(F)F)NC(=O)N1C1CC1` (stereo partly drawn) [Example 205, (3R,E)-4-cyclopropyl-7-(3,3-difluoropropyl)-25-fluoro-3-methyl-13-oxa-4,6-diaza-1(2,4)-imidazo[2,1-f] [1,2,4] triazina-2(4,2)-pyridinacyclo-tridecaphan-5-one], the hOX2R_Ipone max %act stood at 104.8% and the pEC50 was 8.62.

For the molecule `CCN1C(=O)NC(CC2(C)CC2)CCCCCOc2nc(nn3ccnc23)-c2cc(ncc2OC)[C@H]1C` (stereo partly drawn) [Example 206, (3R,E)-4-ethyl-25-methoxy-3-methyl-7-((1-methylcyclo-propyl)methyl)-13-oxa-4,6-diaza-1(2,4)-imidazo[2,1-f] [1,2,4]triazina-2(4,2)-pyridina-cyclotridecaphan-5-one], the hOX2R_Ipone max %act came out at 107.8% and the negative-log EC50 (pEC50) is 8.68.

Regarding `CCN1C(=O)NC(CC(C)(F)F)CCCCCOc2nc(nn3ccnc23)-c2cc(ncc2OC)[C@H]1C` (stereo partly drawn) [Example 207, (3R,E)-7-(2,2-difluoropropyl)-4-ethyl-25-methoxy-3-methyl-13-oxa-4,6-diaza-1(2,4)-imidazo[2,1-f][1,2,4]triazina-2(4,2)-pyridinacyclo-tridecaphan-5-one], the hOX2R_Ipone max %act is given as 104.7% and the pEC50 was 8.37.

`CCN1C(=O)NC(CCC(F)F)CCCCCOc2nc(cn3ccnc23)-c2cc(ncc2OC)[C@H]1C(F)(F)F` (stereo partly drawn) [Example 208, (3S,E)-7-(3,3-difluoropropyl)-4-ethyl-25-methoxy-3-(trifluoromethyl)-13-oxa-4,6-diaza-1(6,8)-imidazo[1,2-a]pyrazina-2(4,2)-pyridinacyclotridecaphan-5-one]: the hOX2R_Ipone max %act is listed as 101.8% and the pEC50 was 9.54.

For `CCN1C(=O)N[C@@H](CCC(F)(F)F)CCCCCOc2nc(cn3ccnc23)C2=C(C3CC3)N=C(O2)[C@H]1C` [Example 211, (9R,13R,E)-14-Cyclopropyl-12-ethyl-13-methyl-9-(3,3,3-trifluoropropyl)-3-oxa-10,12-diaza-1(5,2)-oxazola-2(6,8)-imidazo[1,2-a]pyrazinacyclotridecaphan-11-one], the hOX2R_Ipone max %act worked out at 99.83% and the pEC50 was 8.95.

For the molecule `CCN1C(=O)NC(c2csc(C)n2)CCCCCOc2nc(cn3ccnc23)-c2cc(cnc2OC)C1C` [Example 215, (3R,E)-4-ethyl-22-methoxy-3-methyl-7-(2-methylthiazol-4-yl)-13-oxa-4,6-diaza-1(6,8)-imidazo[1,2-a]pyrazina-2(3,5)-pyridinacyclotridecaphan-5-one], the hOX2R_Ipone max %act stood at 104.9% and the negative-log EC50 (pEC50) was 8.45.

For the molecule `CCN1C(=O)NC(c2nnnn2C)CCCCCOc2nc(cn3ccnc23)-c2cc(ncc2OC)[C@H]1C` (stereo partly drawn) [Example 217, (3R,E)-4-ethyl-2^5-methoxy-3-methyl-7-(1-methyl-1H-tetrazol-5-yl)-13-oxa-4,6-diaza-1(6,8)-imidazo[1,2-a]pyrazina-2(4,2)-pyridinacyclotridecaphan-5-one], the hOX2R_Ipone max %act was found to be 100.1% and the pEC50 was 9.01.

For `CCN1C(=O)NC(c2nc(C)cs2)CCCCCOc2nc(cn3ccnc23)-c2cc(ncc2OC)[C@H]1C` (stereo partly drawn) [Example 218, (3R,E)-4-ethyl-2^5-methoxy-3-methyl-7-(4-methylthiazol-2-yl)-13-oxa-4,6-diaza-1(6,8)-imidazo[1,2-a]pyrazina-2(4,2)-pyridinacyclotridecaphan-5-one], the hOX2R_Ipone max %act was 102.4% and the pEC50 is 9.05.

`CCN1C(=O)NC(c2ncnn2C)CCCCCOc2nc(cn3ccnc23)-c2cc(ncc2OC)[C@H]1C` (stereo partly drawn) [Example 219, (3R,E)-4-ethyl-2^5-methoxy-3-methyl-7-(1-methyl-1H-1,2,4-triazol-5-yl)-13-oxa-4,6-diaza-1(6,8)-imidazo[1,2-a]pyrazina-2(4,2)-pyridinacyclotridecaphan-5-one]: the hOX2R_Ipone max %act is 102.6% and the pEC50 is 7.43.
